Laboratory results as given in patent US7776819B2, “Targeted drug delivery of pain and addiction therapies using opioid receptor-mediated internalization” (The Board of Trustees of the University of Illinois, priority 2005, dated 2010).
Where a SMILES comes first, the peptide text is derived from it.

Target: T1, human mu opioid receptors (hMOR) (Homo sapiens, UniProt P35372)
T1 construct: expressed in transfected cells; host or cells: CHO cells, stably transfected (G418 selection); membrane preparation
Assay: [3H]DAMGO displacement receptor binding assay, CHO-hMOR membranes
Procedure: Receptor membranes were prepared from CHO cells transfected with opioid mu receptors. Binding was performed at 30° C. in 50 mM pH 7.4 tris HCl buffer for 1 h for CHO-MOR (100 μg protein/reaction, 1 nM 3H-DAMGO). Reactions were terminated by vacuum filtration through GF/B filters pretreated with 0.2% polyethylenimine. These were then washed twice with ice-cold PBS. Filter-bound radioactivity was determined by liquid scintillation counting. Nonspecific binding was determined in the presence of 20 μM DAMGO.
Briefly, membranes were prepared from CHO-hMOR cells by Polytron homogenization at setting 6 for 2 min on ice, followed by centrifugation at 20,000 g for 30 min at 4° C. Protein content was determined by the Coomassie protein assay method (Pierce Biotechnology, Rockford, Ill.) and bovine serum albumin as the standard. MOR receptor binding was conducted in triplicate with 1 nM [^3H]DAMGO in 50 mM Tris HCl buffer (pH 7.4) at 30° C. for 1 h (50 μg protein/reaction). Nonspecific binding was determined in the presence of 20 μM unlabelled DAMGO. Reactions were terminated by rapid vacuum filtration through GF/B filters presoaked with 0.2% polyethylenimine. Filter-bound radioactivity was determined by liquid scintillation counting (Beckman Coulter Inc., Fullerton, Calif.). Binding data representing the mean ±SD were analyzed using Prism program (GraphPad Software, San Diego, Calif.).

T1 sequence (P35372 whole entry): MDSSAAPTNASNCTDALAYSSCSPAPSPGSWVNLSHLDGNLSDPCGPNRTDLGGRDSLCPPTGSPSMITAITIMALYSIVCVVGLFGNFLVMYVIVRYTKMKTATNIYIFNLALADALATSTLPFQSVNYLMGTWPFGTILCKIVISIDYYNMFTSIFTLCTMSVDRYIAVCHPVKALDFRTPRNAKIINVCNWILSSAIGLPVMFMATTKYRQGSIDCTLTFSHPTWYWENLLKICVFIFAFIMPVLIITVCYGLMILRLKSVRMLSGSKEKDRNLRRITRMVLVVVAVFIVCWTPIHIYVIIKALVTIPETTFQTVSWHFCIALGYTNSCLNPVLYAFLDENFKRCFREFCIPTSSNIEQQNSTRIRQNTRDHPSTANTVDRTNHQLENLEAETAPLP

C[C@@H](NC(=O)[C@@H](N)Cc1ccc(O)cc1)C(=O)N[C@@H](Cc1ccccc1)C(=O)NCC(=O)N[C@@H](Cc1ccc(O)cc1)C(=O)N1CCC[C@H]1C(=O)N[C@@H](CO)C(=O)N[C@@H](CS)C(=O)O [c-p-dermorphin] (HELM PEPTIDE1{Y.[dA].F.G.Y.P.S.C}$$$$V2.0)
IC50: 25.3 nM
